Settings: Liquid, Frequency=8 MHz, Pulse-echo method

CCCC [butane]
Settings | speed of sound [m/s]
320 K, 1101.2 kPa | 790.66
320 K, 2101.9 kPa | 805.08
320 K, 2104.1 kPa | 805.16
320 K, 3102.5 kPa | 818.93
320 K, 3104.8 kPa | 819.01
320 K, 4103.2 kPa | 832.27
320 K, 4105.5 kPa | 832.35
320 K, 5103.8 kPa | 845.16
320 K, 5106.1 kPa | 845.24
320 K, 6106.8 kPa | 857.71
320 K, 7107.5 kPa | 869.8
320 K, 8108.2 kPa | 881.54
320 K, 9108.9 kPa | 892.95
320 K, 10109 kPa | 904.04
320 K, 10110 kPa | 904.07
320 K, 12611 kPa | 930.65
320 K, 15113 kPa | 955.74
320 K, 17615 kPa | 979.54
320 K, 20116 kPa | 1002.2
320 K, 25120 kPa | 1044.7
320 K, 30123 kPa | 1084
320 K, 35127 kPa | 1120.6
320 K, 40130 kPa | 1155
320 K, 45134 kPa | 1187.5
320 K, 50137 kPa | 1218.4
320 K, 50138 kPa | 1218.4
320 K, 60144 kPa | 1276.1
320 K, 70152 kPa | 1329.2
320 K, 80158 kPa | 1378.5
320 K, 90166 kPa | 1424.7
320 K, 100173 kPa | 1468.2
340 K, 1100.4 kPa | 678.12
340 K, 2101.1 kPa | 696.22
340 K, 2103.7 kPa | 696.27
340 K, 3101.7 kPa | 713.3
340 K, 3104.3 kPa | 713.36
340 K, 4102.4 kPa | 729.53
340 K, 4105 kPa | 729.59
340 K, 5102.9 kPa | 745.01
340 K, 5105.6 kPa | 745.07
340 K, 6106.2 kPa | 759.88
340 K, 7106.8 kPa | 774.1
340 K, 8107.5 kPa | 787.79
340 K, 9108.1 kPa | 801.01
340 K, 10106 kPa | 813.73
340 K, 10108 kPa | 813.77
340 K, 12610 kPa | 844.03
340 K, 15112 kPa | 872.22
340 K, 17614 kPa | 898.7
340 K, 20116 kPa | 923.7
340 K, 25119 kPa | 970.09
340 K, 30123 kPa | 1012.5
340 K, 35126 kPa | 1051.8
340 K, 40130 kPa | 1088.5
340 K, 45133 kPa | 1122.9
340 K, 50136 kPa | 1155.5
340 K, 60145 kPa | 1216
340 K, 70152 kPa | 1271.4
340 K, 80159 kPa | 1322.7
340 K, 90166 kPa | 1370.5
340 K, 100173 kPa | 1415.5
360 K, 2100.8 kPa | 582.29
360 K, 2103.9 kPa | 582.37
360 K, 3101.4 kPa | 604.48
360 K, 3104.6 kPa | 604.56
360 K, 4102 kPa | 625
360 K, 4102.1 kPa | 625
360 K, 4105.4 kPa | 625.09
360 K, 5102.6 kPa | 644.17
360 K, 5103 kPa | 644.18
360 K, 5106.1 kPa | 644.25
360 K, 6106.9 kPa | 662.28
360 K, 7107.6 kPa | 679.33
360 K, 8108.4 kPa | 695.54
360 K, 9109.1 kPa | 711.01
360 K, 10110 kPa | 725.83
360 K, 12612 kPa | 760.45
360 K, 15113 kPa | 792.21
360 K, 17615 kPa | 821.66
360 K, 20117 kPa | 849.23
360 K, 25120 kPa | 899.75
360 K, 30124 kPa | 945.47
360 K, 35128 kPa | 987.41
360 K, 40131 kPa | 1026.3
360 K, 45135 kPa | 1062.7
360 K, 50138 kPa | 1096.9
360 K, 60145 kPa | 1160.2
360 K, 70152 kPa | 1217.7
360 K, 80159 kPa | 1270.8
360 K, 90166 kPa | 1320.2
360 K, 100173 kPa | 1366.5
380 K, 2103.2 kPa | 456.13
380 K, 3104.2 kPa | 488.08
380 K, 4105 kPa | 515.93
380 K, 5105.8 kPa | 540.88
